Assay results reported in patent publication US9944602B2, “Piperidinone herbicides” (E. I. DU PONT DE NEMOURS AND COMPANY, priority 2014, dated 2018).

Assays:
[1] = tested on: ryegrass, Italian (Italian ryegrass, Lolium multiflorum); test: Test A postemergence ryegrass, Italian; assay type: in vivo; details: Lolium multiflorum, post-emergence, 240 h, 0 to 100 scale, 0 is no effect, 100 is complete control, read-out: Plant response rating, Ryegrass, Italian; for pest or weed control at 125 g/ha: 125 g ai/ha; for pest or weed control at 500 g/ha: 500 g ai/ha
How it was run: (§1)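 Both application timings used the same loam-and-sand medium and the same solvent–surfactant formulation. Postemergence plants were 2–10 cm at the one- to two-leaf stage. After roughly 10 d of greenhouse growth, injury was judged visually against untreated plants, where 0 is no effect and 100 complete control.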

[2] = tested on: foxtail, giant (giant foxtail, Setaria faberii); test: Test A postemergence foxtail, giant; assay type: in vivo; details: Setaria faberi, post-emergence, 240 h, 0 to 100 scale, 0 is no effect, 100 is complete control, read-out: Plant response rating, Foxtail, Giant; for pest or weed control at 125 g/ha: 125 g ai/ha; for pest or weed control at 500 g/ha: 500 g ai/ha
How it was run: as §1

[3] = tested on: pigweed (Amaranthus retroflexus); test: Test A postemergence pigweed; assay type: in vivo; details: Amaranthus retroflexus, post-emergence, 240 h, 0 to 100 scale, 0 is no effect, 100 is complete control, read-out: Plant response rating, Pigweed; for pest or weed control at 125 g/ha: 125 g ai/ha; for pest or weed control at 500 g/ha: 500 g ai/ha
How it was run: as §1

[4] = tested on: foxtail, giant (giant foxtail, Setaria faberii); test: Test A preemergence foxtail, giant; assay type: in vivo; details: Setaria faberi, pre-emergence, 240 h, 0 to 100 scale, 0 no effect, 100 complete control, read-out: Foxtail, Giant plant response rating; for pest or weed control at 125 g/ha: 125 g ai/ha; for pest or weed control at 500 g/ha: 500 g ai/ha
How it was run: as §1

corn (Zea mays) = test: Test A postemergence corn; assay type: in vivo; details: Zea mays, post-emergence, 240 h, 0 to 100 scale, 0 is no effect, 100 is complete control; for Corn plant response rating (crop injury, 0 = no effect, 100 = complete kill) at 125 g/ha: 125 g ai/ha; for Corn plant response rating (crop injury, 0 = no effect, 100 = complete kill) at 500 g/ha: 500 g ai/ha
How it was run: as §1

[5] = tested on: ryegrass, Italian (Italian ryegrass, Lolium multiflorum); test: Test A preemergence ryegrass, Italian; assay type: in vivo; details: Lolium multiflorum, pre-emergence, 240 h, 0 to 100 scale, 0 no effect, 100 complete control, read-out: Ryegrass, Italian plant response rating; for pest or weed control at 125 g/ha: 125 g ai/ha; for pest or weed control at 500 g/ha: 500 g ai/ha
How it was run: as §1

kochia (Kochia scoparia) [6] = test: Test A preemergence kochia; assay type: in vivo; details: Bassia scoparia, pre-emergence, 240 h, 0 to 100 scale, 0 no effect, 100 complete control, read-out: Kochia plant response rating; for pest or weed control at 125 g/ha: 125 g ai/ha; for pest or weed control at 500 g/ha: 500 g ai/ha
How it was run: as §1

[7] = tested on: blackgrass (Alopecurus myosuroides); test: Test A postemergence blackgrass; assay type: in vivo; details: Alopecurus myosuroides, post-emergence, 240 h, 0 to 100 scale, 0 is no effect, 100 is complete control, read-out: Plant response rating, Blackgrass; for pest or weed control at 125 g/ha: 125 g ai/ha; for pest or weed control at 500 g/ha: 500 g ai/ha
How it was run: as §1

[8] = tested on: ragweed (common ragweed, Ambrosia elatior); test: Test A postemergence ragweed; assay type: in vivo; details: Ambrosia artemisiifolia, post-emergence, 240 h, 0 to 100 scale, 0 is no effect, 100 is complete control, read-out: Plant response rating, Ragweed; for pest or weed control at 125 g/ha: 125 g ai/ha; for pest or weed control at 500 g/ha: 500 g ai/ha
How it was run: as §1

[9] = tested on: barnyardgrass (Echinochloa crus-galli); test: Test A postemergence barnyardgrass; assay type: in vivo; details: Echinochloa crus-galli, post-emergence, 240 h, 0 to 100 scale, 0 is no effect, 100 is complete control, read-out: Plant response rating, Barnyardgrass; for pest or weed control at 125 g/ha: 125 g ai/ha; for pest or weed control at 500 g/ha: 500 g ai/ha
How it was run: as §1

kochia (Kochia scoparia) [10] = test: Test A postemergence kochia; assay type: in vivo; details: Bassia scoparia, post-emergence, 240 h, 0 to 100 scale, 0 is no effect, 100 is complete control, read-out: Plant response rating, Kochia; for pest or weed control at 125 g/ha: 125 g ai/ha; for pest or weed control at 500 g/ha: 500 g ai/ha
How it was run: as §1

[11] = tested on: sedge, umbrella (small-flower umbrella sedge, Cyperus difformis); test: Test B flooded paddy test sedge, umbrella; assay type: in vivo; details: Cyperus difformis, Table B, Flood, 250 g ai/ha, scale 0 to 100, read-out: Plant response rating
How it was run: (§2)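 Test pots carrying 2-leaf-stage seedlings were flooded to 3 cm above the soil surface when treated. Compound went directly into the standing water. Plants stayed in the greenhouse at that depth for 13 to 15 d before visual comparison with controls.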

[12] = tested on: barnyardgrass (Echinochloa crus-galli); test: Test B flooded paddy test barnyardgrass; assay type: in vivo; details: Echinochloa crus-galli, Table B, Flood, 250 g ai/ha, scale 0 to 100, read-out: Plant response rating
How it was run: as §2

[13] = tested on: pigweed (Amaranthus retroflexus); test: Test A preemergence pigweed; assay type: in vivo; details: Amaranthus retroflexus, pre-emergence, 240 h, 0 to 100 scale, 0 no effect, 100 complete control, read-out: Pigweed plant response rating; for pest or weed control at 125 g/ha: 125 g ai/ha; for pest or weed control at 500 g/ha: 500 g ai/ha
How it was run: as §1

rice (Oryza sativa) = test: Test B flooded paddy test rice; assay type: in vivo; details: Oryza sativa, Table B, Flood, 250 g ai/ha, scale 0 to 100, read-out: Plant response rating
How it was run: as §2

[14] = tested on: wheat (Triticum aestivum); test: Test A postemergence wheat; assay type: in vivo; details: Triticum aestivum, post-emergence, 240 h, 0 to 100 scale, 0 is no effect, 100 is complete control, read-out: Plant response rating, Wheat; for plant injury at 125 g/ha: 125 g ai/ha; for plant injury at 500 g/ha: 500 g ai/ha
How it was run: as §1

[15] = tested on: ducksalad (Heteranthera limosa); test: Test B flooded paddy test ducksalad; assay type: in vivo; details: Heteranthera limosa, Table B, Flood, 250 g ai/ha, scale 0 to 100, read-out: Plant response rating
How it was run: as §2

[16] = tested on: galium (catchweed bedstraw, Galium aparine); test: Test A postemergence galium; assay type: in vivo; details: Galium, post-emergence, 240 h, 0 to 100 scale, 0 is no effect, 100 is complete control, read-out: Plant response rating, Galium; for pest or weed control at 125 g/ha: 125 g ai/ha; for pest or weed control at 500 g/ha: 500 g ai/ha
How it was run: as §1

[17] = tested on: ragweed (common ragweed, Ambrosia elatior); test: Test A preemergence ragweed; assay type: in vivo; details: Ambrosia artemisiifolia, pre-emergence, 240 h, 0 to 100 scale, 0 no effect, 100 complete control, read-out: Ragweed plant response rating; for pest or weed control at 125 g/ha: 125 g ai/ha; for pest or weed control at 500 g/ha: 500 g ai/ha
How it was run: as §1

[18] = tested on: barnyardgrass (Echinochloa crus-galli); test: Test A preemergence barnyardgrass; assay type: in vivo; details: Echinochloa crus-galli, pre-emergence, 240 h, 0 to 100 scale, 0 no effect, 100 complete control, read-out: Barnyardgrass plant response rating; for pest or weed control at 125 g/ha: 125 g ai/ha; for pest or weed control at 500 g/ha: 500 g ai/ha
How it was run: as §1

| Compound | pest or weed control at 125 g/ha [1] | pest or weed control at 500 g/ha [1] | pest or weed control at 125 g/ha [2] | pest or weed control at 500 g/ha [2] | pest or weed control at 125 g/ha [3] | pest or weed control at 500 g/ha [3] | pest or weed control at 125 g/ha [4] | pest or weed control at 500 g/ha [4] | Corn plant response rating (crop injury, 0 = no effect, 100 = complete kill) at 125 g/ha (corn (Zea mays)) | Corn plant response rating (crop injury, 0 = no effect, 100 = complete kill) at 500 g/ha (corn (Zea mays)) | pest or weed control at 125 g/ha [5] | pest or weed control at 500 g/ha [5] | pest or weed control at 125 g/ha (kochia (Kochia scoparia) [6]) | pest or weed control at 500 g/ha (kochia (Kochia scoparia) [6]) | pest or weed control at 125 g/ha [7] | pest or weed control at 500 g/ha [7] | pest or weed control at 125 g/ha [8] | pest or weed control at 500 g/ha [8] | pest or weed control at 125 g/ha [9] | pest or weed control at 500 g/ha [9] | also measured |
| --- | --- | --- | --- | --- | --- | --- | --- | --- | --- | --- | --- | --- | --- | --- | --- | --- | --- | --- | --- | --- | --- |
| O=C1NCCC(c2cccc(C(F)F)c2)C1C(=O)Nc1cccc(F)c1F (centres unmarked) [Compound 49, 4-[3-(difluoromethyl)phenyl]-N-(2,3-difluorophenyl)-2-oxo-3-piperidinecarboxamide] | 0% | 0% | 80% | 80% | 0% | 0% | 90% | 90% | 0% | 50% | 0% | 60% | 0% | 0% | 0% | 50% | 0% | 0% | 80% | 90% | pest or weed control at 125 g/ha (kochia (Kochia scoparia) [10]): 0%; pest or weed control at 500 g/ha (kochia (Kochia scoparia) [10]): 0%; pest or weed control at 250 g/ha [11]: 0%; pest or weed control at 250 g/ha [12]: 70%; pest or weed control at 125 g/ha [13]: 0%; pest or weed control at 500 g/ha [13]: 0%; plant injury at 250 g/ha (rice (Oryza sativa)): 0%; plant injury at 125 g/ha [14]: 0%; plant injury at 500 g/ha [14]: 30%; pest or weed control at 250 g/ha [15]: 100%; pest or weed control at 125 g/ha [16]: 0%; pest or weed control at 500 g/ha [16]: 0%; melting point: 134 to 137 °C; pest or weed control at 125 g/ha [17]: 0%; pest or weed control at 500 g/ha [17]: 0%; pest or weed control at 125 g/ha [18]: 80%; pest or weed control at 500 g/ha [18]: 90% |
| O=C1NCCC(c2cccc(Cl)c2)C1C(=O)Nc1cccc(F)c1F (centres unmarked) [Compound 36, 4-(3-chlorophenyl)-N-(2,3-difluorophenyl)-2-oxo-3-piperidinecarboxamide] | 0% | 20% | 90% | 90% | 0% | 0% | 90% | 90% | 0% | 0% | 0% | 30% | 0% | 0% | 0% | 60% | 0% | 0% | 80% | 90% | pest or weed control at 125 g/ha (kochia (Kochia scoparia) [10]): 0%; pest or weed control at 500 g/ha (kochia (Kochia scoparia) [10]): 0%; pest or weed control at 250 g/ha [11]: 0%; pest or weed control at 250 g/ha [12]: 60%; pest or weed control at 125 g/ha [13]: 0%; pest or weed control at 500 g/ha [13]: 0%; plant injury at 250 g/ha (rice (Oryza sativa)): 0%; plant injury at 125 g/ha [14]: 0%; plant injury at 500 g/ha [14]: 0%; pest or weed control at 250 g/ha [15]: 90%; pest or weed control at 125 g/ha [16]: 0%; pest or weed control at 500 g/ha [16]: 30%; melting point: 100 to 102 °C; pest or weed control at 125 g/ha [17]: 0%; pest or weed control at 500 g/ha [17]: 0%; pest or weed control at 125 g/ha [18]: 90%; pest or weed control at 500 g/ha [18]: 90% |
